Assay results from publication PMC11284787, “Ligand-Directed Labeling of the Adenosine A1 Receptor in Living Cells” (Journal of Medicinal Chemistry, 2024).

Key:
NL-hA2AAR = target: T1, NL-hA2AAR (Homo sapiens, UniProt P29274); experiment: NanoBRET saturation ligand-binding assay, NL-hA2AAR; conditions: HEK293T cells transiently expressing NL-hA2AAR, mean ± SEM; read-out: affinity values pKD, NL-hA2AAR (converted)
T1 construct: expressed in transfected cells; host or cells: HEK293T, transient transfection (FuGENE)
Description: Probes 11 and 12 were further evaluated for their ability to bind the other three adenosine receptor subtypes (NL-A2AAR, NL-A2BAR, and NL-A3AR), and their ligand-binding properties were quantified in the NanoBRET saturation and inhibition binding assays, respectively (Table 1 and Figure 4). […]
plates (Nunc Lab-Tek, Thermo Fischer Scientific), pre-coated with Poly-D-Lysine, at 20,000 cells per well in DMEM/10% FCS. 24 h post seeding, cells were transiently transfected with human SNAP-A1. Transient transfections were carried out following manufacturer’s protocol: used FuGENE (Promega) HD at 3:1 ratio of reagent to cDNA with a total of 300 ng cDNA per well. Transfection solutions were made up in Gibco Opti-MEM (Thermo Fischer Scientific), incubated at RT for 5 min and added as 11 µL per well. Cells were incubated for additional 24 h at 37 OC, 5% CO2. Transient Transfection of NanoLuc-tagged human A 2AAR in HEK293T cell line was carried out as follows: 72 h prior to the experiment cells were removed from a confluent T75 flask and centrifuged. The pellet of cells was resuspended in 10 mL of fresh complete DMEM. […]
(§1) 37 °C for kinetic binding experiments. Emissions were read at 420 nm (80 nm bandpass; […]

NL-hA2BAR = target: T2, NL-hA2BAR (Homo sapiens, UniProt P29275); experiment: NanoBRET saturation ligand-binding assay, NL-hA2BAR
T2 construct: expressed in transfected cells
T2 sequence (P29275 1-332): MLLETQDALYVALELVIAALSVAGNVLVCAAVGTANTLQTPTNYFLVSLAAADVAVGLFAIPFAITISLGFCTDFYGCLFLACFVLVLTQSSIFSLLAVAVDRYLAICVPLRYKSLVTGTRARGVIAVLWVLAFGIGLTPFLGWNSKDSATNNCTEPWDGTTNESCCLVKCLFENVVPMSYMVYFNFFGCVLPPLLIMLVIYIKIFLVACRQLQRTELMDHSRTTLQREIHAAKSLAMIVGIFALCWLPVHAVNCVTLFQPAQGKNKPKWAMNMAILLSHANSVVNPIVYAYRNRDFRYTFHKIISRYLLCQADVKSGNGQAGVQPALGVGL
Description: (§2) Probes 11 and 12 were further evaluated for their ability to bind the other three adenosine receptor subtypes (NL-A2AAR, NL-A2BAR, and NL-A3AR), and their ligand-binding properties were quantified in the NanoBRET saturation and inhibition binding assays, respectively (Table 1 and Figure 4).
(§3) NanoBRET binding assay. All NanoBRET experiments were performed in white flat […]
as §1
(§4) the SulfoCy5-labelled probe. […]
(§5) nm emission by the 420 nm emission. The term “raw BRET ratio” refers to the unprocessed data as no background ratio has been subtracted. In all NanoBRET binding […]
(§6) competitive antagonist selective for the adenosine receptor under investigation […]
(§7) MRS1220 for the A3AR). HEK293T cells stably/transiently expressing Nluc-AR were […]
(§8) were incubated for 1 h at 37 °C. […]
(§9) NanoBRET saturation binding assay. Total and nonspecific saturation binding curves were fit simultaneously using the following equation:
(§10) BRET ratio = Bmax[B] + M(B) + C […]
(§11) Uninhibited specific binding = 100 ― 100 x [A]

NL-hA3AR = target: T3, NL-hA3AR (Homo sapiens, UniProt P0DMS8); experiment: NanoBRET saturation ligand-binding assay, NL-hA3AR
T3 construct: expressed in transfected cells
T3 sequence (P0DMS8 1-318): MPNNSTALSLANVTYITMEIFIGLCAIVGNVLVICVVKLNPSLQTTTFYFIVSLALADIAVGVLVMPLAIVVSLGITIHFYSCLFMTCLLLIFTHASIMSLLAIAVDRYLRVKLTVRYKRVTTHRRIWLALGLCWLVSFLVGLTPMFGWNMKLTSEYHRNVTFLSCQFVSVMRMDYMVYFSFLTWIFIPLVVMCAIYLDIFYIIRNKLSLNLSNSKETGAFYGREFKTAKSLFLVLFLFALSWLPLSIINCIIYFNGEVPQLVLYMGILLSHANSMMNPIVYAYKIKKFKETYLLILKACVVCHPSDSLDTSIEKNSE
Description: as §2, §3, §1, §4, §5, §6, §7, §8, §9, §10, §11

T1 sequence (P29274 whole entry): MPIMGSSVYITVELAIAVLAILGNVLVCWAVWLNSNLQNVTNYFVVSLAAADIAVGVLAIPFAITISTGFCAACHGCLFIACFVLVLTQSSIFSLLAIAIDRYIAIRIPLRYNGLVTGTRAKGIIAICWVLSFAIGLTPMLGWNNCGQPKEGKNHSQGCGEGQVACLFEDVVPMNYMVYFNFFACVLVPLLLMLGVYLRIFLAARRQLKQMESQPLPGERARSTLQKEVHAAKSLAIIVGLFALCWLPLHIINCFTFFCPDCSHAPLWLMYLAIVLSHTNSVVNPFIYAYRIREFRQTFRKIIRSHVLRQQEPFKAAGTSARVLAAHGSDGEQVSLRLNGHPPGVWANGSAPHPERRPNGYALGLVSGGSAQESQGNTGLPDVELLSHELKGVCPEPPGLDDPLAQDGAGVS

`CCCCn1c(=O)c2[nH]c(C34CCC(C(=O)NCCNC(=O)CCNC(=O)c5ccc(OC(=O)CCCCC[N+]6=C(/C=C/C=C/C=C7/N(C)c8ccc(S(=O)(=O)O)cc8C7(C)C)C(C)(C)c7cc(S(=O)(=O)[O-])ccc76)c(F)c5)(CC3)CC4)nc2n(CCCC)c1=O` [Compound 11, 1-(6-(4-((3-((2-(4-(1,3-Dibutyl-2,6-dioxo-2,3,6,7-tetrahydro-1H-purin-8-yl)bicyclo[2.2.2]octane-1-carboxamido)ethyl)amino)-3-oxopropyl)carbamoyl)-2-fluorophenoxy)-6-oxohexyl)-3,3-dimethyl-2-((1E,3E)-5-((E)-1,3,3-trimethyl-5-sulfoindolin-2-ylidene)penta-1,3-dien-1-yl)-3H-indol-1-ium-5-sulfonate] was tested, and the Kd (NL-hA2AAR) was 0.245 µM, the Kd (NL-hA2BAR; HEK293T cells stably expressing NL-hA2BAR, read-out: affinity values pKD, NL-hA2BAR (converted)) was > 1 µM and the “BRET signal detected at NL-A2BAR” value (NL-hA2BAR; concentrations tested 0–500 nM) was “minimal BRET signal”. For the same compound, the Kd (NL-hA3AR; HEK293T cells stably expressing NL-hA3AR, read-out: affinity values pKD, NL-hA3AR (converted)) was > 1 µM and the “BRET signal detected at NL-A3AR” value (NL-hA3AR; concentrations tested 0–500 nM) was “minimal BRET signal”.
